Experimental data: the supplement of paper PMC10307832

Columns and labels:
Assay in all cases: relative viability (nuclei count vs DMSO), 5 days (fraction); higher = more cells survive
201T = tested on: 201T
Summary of the method: (§1)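 A single step with final 0.05% Triton X-100, 1% formaldehyde and 1 ug/ml Hoechst fixed the cells and stained nuclei 5 days after treatment. Lung cancer cell lines in 1536-well plates had been treated by pin tool the day after seeding with one drug alone or a fixed anchor-drug dose plus five library-drug doses (not always all listed) in √10 steps, and nuclei were counted on 4× images. Relative viability is the ratio of nuclei in treated wells to nuclei in vehicle wells, taken as the median of duplicate plates.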

A-427 = tested on: A-427
Summary of the method: as §1

COR-L23 = tested on: COR-L23
Summary of the method: as §1

H3255 = tested on: H3255
Summary of the method: as §1

HCC-44 = tested on: HCC-44
Summary of the method: as §1

LC-2-ad = tested on: LC-2-ad
Summary of the method: as §1

LCLC-103H = tested on: LCLC-103H
Summary of the method: as §1

LCLC-97TM1 = tested on: LCLC-97TM1
Summary of the method: as §1

LK-2 = tested on: LK-2
Summary of the method: as §1

LU99A = tested on: LU99A
Summary of the method: as §1

NCI-H1650 = tested on: NCI-H1650
Summary of the method: as §1

NCI-H1793 = tested on: NCI-H1793
Summary of the method: as §1

NCI-H2347 = tested on: NCI-H2347
Summary of the method: as §1

NCI-H23 = tested on: NCI-H23
Summary of the method: as §1

NCI-H460 = tested on: NCI-H460
Summary of the method: as §1

NCI-H596 = tested on: NCI-H596
Summary of the method: as §1

NCI-H727 = tested on: NCI-H727
Summary of the method: as §1

PC-14 = tested on: PC-14
Summary of the method: as §1

SW 1573 = tested on: SW 1573
Summary of the method: as §1

SW 900 = tested on: SW 900
Summary of the method: as §1

## CC(=O)O[C@@]12CO[C@@H]1C[C@H](O)[C@@]1(C)C(=O)[C@H](O)C3=C(C)[C@@H](OC(=O)[C@H](O)[C@@H](NC(=O)OC(C)(C)C)c4ccccc4)C[C@@](O)([C@@H](OC(=O)c4ccccc4)[C@H]21)C3(C)C [Docetaxel] + Nc1ncn([C@H]2C[C@H](O)[C@@H](CO)O2)c(=O)n1 [Decitabine] (partner 2 µM)
201T; first compound 0.0002 µM
  relative viability: 0.782
201T; first compound 0.000632 µM
  relative viability: 0.778
201T; first compound 0.002 µM
  relative viability: 0.701
201T; first compound 0.006325 µM
  relative viability: 0.47
201T; first compound 0.02 µM
  relative viability: 0.331
A-427; first compound 0.0002 µM
  relative viability: 0.568
A-427; first compound 0.000632 µM
  relative viability: 0.569
A-427; first compound 0.002 µM
  relative viability: 0.443
A-427; first compound 0.006325 µM
  relative viability: 0.3
A-427; first compound 0.02 µM
  relative viability: 0.222
COR-L23; first compound 0.0002 µM
  relative viability: 0.39
COR-L23; first compound 0.000632 µM
  relative viability: 0.443
COR-L23; first compound 0.002 µM
  relative viability: 0.291
COR-L23; first compound 0.02 µM
  relative viability: 0.121
H3255; first compound 0.0002 µM
  relative viability: 0.734
H3255; first compound 0.000632 µM
  relative viability: 0.566
H3255; first compound 0.002 µM
  relative viability: 0.335
H3255; first compound 0.006325 µM
  relative viability: 0.31
H3255; first compound 0.02 µM
  relative viability: 0.27
HCC-44; first compound 0.0002 µM
  relative viability: 0.96
HCC-44; first compound 0.000632 µM
  relative viability: 0.97
HCC-44; first compound 0.002 µM
  relative viability: 0.853
HCC-44; first compound 0.006325 µM
  relative viability: 0.472
HCC-44; first compound 0.02 µM
  relative viability: 0.566
LC-2-ad; first compound 0.0002 µM
  relative viability: 0.769
LC-2-ad; first compound 0.000632 µM
  relative viability: 0.714
LC-2-ad; first compound 0.002 µM
  relative viability: 0.465
LC-2-ad; first compound 0.006325 µM
  relative viability: 0.323
LC-2-ad; first compound 0.02 µM
  relative viability: 0.272
LCLC-103H; first compound 0.0002 µM
  relative viability: 0.712
LCLC-103H; first compound 0.000632 µM
  relative viability: 0.796
LCLC-103H; first compound 0.002 µM
  relative viability: 0.761
LCLC-103H; first compound 0.006325 µM
  relative viability: 0.713
LCLC-103H; first compound 0.02 µM
  relative viability: 0.524
LCLC-97TM1; first compound 0.0002 µM
  relative viability: 0.208
LCLC-97TM1; first compound 0.000632 µM
  relative viability: 0.189
LCLC-97TM1; first compound 0.002 µM
  relative viability: 0.133
LCLC-97TM1; first compound 0.006325 µM
  relative viability: 0.112
LCLC-97TM1; first compound 0.02 µM
  relative viability: 0.0836
LK-2; first compound 0.0002 µM
  relative viability: 0.348
LK-2; first compound 0.000632 µM
  relative viability: 0.224
LK-2; first compound 0.002 µM
  relative viability: 0.115
LK-2; first compound 0.006325 µM
  relative viability: 0.126
LK-2; first compound 0.02 µM
  relative viability: 0.13
LU99A; first compound 0.0002 µM
  relative viability: 0.87
LU99A; first compound 0.000632 µM
  relative viability: 0.872
LU99A; first compound 0.002 µM
  relative viability: 0.466
LU99A; first compound 0.006325 µM
  relative viability: 0.363
LU99A; first compound 0.02 µM
  relative viability: 0.204
NCI-H1650; first compound 0.0002 µM
  relative viability: 0.376
NCI-H1650; first compound 0.000632 µM
  relative viability: 0.323
NCI-H1650; first compound 0.002 µM
  relative viability: 0.246
NCI-H1650; first compound 0.006325 µM
  relative viability: 0.2
NCI-H1650; first compound 0.02 µM
  relative viability: 0.193
NCI-H1793; first compound 0.0002 µM
  relative viability: 0.532
NCI-H1793; first compound 0.000632 µM
  relative viability: 0.359
NCI-H1793; first compound 0.002 µM
  relative viability: 0.278
NCI-H1793; first compound 0.006325 µM
  relative viability: 0.2
NCI-H1793; first compound 0.02 µM
  relative viability: 0.18
NCI-H2347; first compound 0.0002 µM
  relative viability: 0.637
NCI-H2347; first compound 0.000632 µM
  relative viability: 0.633
NCI-H2347; first compound 0.002 µM
  relative viability: 0.644
NCI-H2347; first compound 0.006325 µM
  relative viability: 0.51
NCI-H2347; first compound 0.02 µM
  relative viability: 0.473
NCI-H23; first compound 0.0002 µM
  relative viability: 0.33
NCI-H23; first compound 0.000632 µM
  relative viability: 0.303
NCI-H23; first compound 0.002 µM
  relative viability: 0.253
NCI-H23; first compound 0.006325 µM
  relative viability: 0.256
NCI-H23; first compound 0.02 µM
  relative viability: 0.157
NCI-H460; first compound 0.0002 µM
  relative viability: 0.443
NCI-H460; first compound 0.002 µM
  relative viability: 0.061
NCI-H460; first compound 0.006325 µM
  relative viability: 0.0383
NCI-H460; first compound 0.02 µM
  relative viability: 0.0286
NCI-H596; first compound 0.0002 µM
  relative viability: 1.02
NCI-H596; first compound 0.000632 µM
  relative viability: 1.01
NCI-H596; first compound 0.002 µM
  relative viability: 1.02
NCI-H596; first compound 0.006325 µM
  relative viability: 0.639
NCI-H596; first compound 0.02 µM
  relative viability: 0.372
NCI-H727; first compound 0.0002 µM
  relative viability: 0.738
NCI-H727; first compound 0.000632 µM
  relative viability: 0.895
NCI-H727; first compound 0.002 µM
  relative viability: 0.709
NCI-H727; first compound 0.006325 µM
  relative viability: 0.663
NCI-H727; first compound 0.02 µM
  relative viability: 0.788
PC-14; first compound 0.0002 µM
  relative viability: 0.175
PC-14; first compound 0.000632 µM
  relative viability: 0.107
PC-14; first compound 0.002 µM
  relative viability: 0.0764
PC-14; first compound 0.006325 µM
  relative viability: 0.0588
PC-14; first compound 0.02 µM
  relative viability: 0.0313
SW 1573; first compound 0.0002 µM
  relative viability: 0.387
SW 1573; first compound 0.000632 µM
  relative viability: 0.296
SW 1573; first compound 0.002 µM
  relative viability: 0.172
SW 1573; first compound 0.006325 µM
  relative viability: 0.165
SW 1573; first compound 0.02 µM
  relative viability: 0.121
SW 900; first compound 0.0002 µM
  relative viability: 0.485
SW 900; first compound 0.000632 µM
  relative viability: 0.344
SW 900; first compound 0.002 µM
  relative viability: 0.323
SW 900; first compound 0.006325 µM
  relative viability: 0.296
SW 900; first compound 0.02 µM
  relative viability: 0.212
